Results: patent US5955506A, “Benzamides for neurodegenerative disorder treatment” (priority 1998, dated 1999)

Key:
striatal dopamine [1] = assay: MPTP dopamine depletion model (mice, sacrificed 72 h after MPTP); type: in vivo, C57BL/6J mice; details: for % non-MPTP control (striatal dopamine) / Dopamine/mg protein ± S.E.M.: 30 mg/kg p.o.; for % non-MPTP control (striatal dopamine) / Dopamine, nM/mg ± S.E.M., test compound / Protection, %: 15 mg/kg MPTP model; for Dopamine/mg protein ± S.E.M.: 30 min before 15 mg/kg MPTP s.c.; for prevention of dopamine depletion following MPTP challenge (in words): Table 1 results, 30 mg/kg; for Degree of protection, % (MPTP dopamine depletion test): Table 3, dose not given; for protection from MPTP neurotoxicity, % of control / protection from the neurotoxic action of MPTP (in words): 50 mg/kg; for Dopamine, nM/mg ± S.E.M., test compound / Protection, %: 50 mg/kg p.o.; for Protection, %: versus methyl cellulose control (Standard)
Description: These findings have led to the development of an assay for agents effective in treating dopamine-associated neurodegenerative disorders, such as Parkinson's disease. In this assay, test animals are given an amount of MPTP adequate to severely depress their dopamine levels. Test compounds are administered to determine if they are capable of preventing the loss of dopamine in the test animals. To the extent that dopamine levels are retained, a compound can be considered to be an effective agent for slowing or delaying the course of neurodegenerative disease, e.g., Parkinson's disease. Dopamine Depletion Studies (MPTP Model) C57BL/6J mice were pretreated with either vehicle (1% methyl cellulose) or a drug (p.o.) 30 min before MPTP. MPTP was dissolved in isotonic saline (0.9%) and given subcutaneously as a single dose of 15 mg free base/kg body weight to produce a reduction in striatal dopamine to about 0.5 nanomoles/mg protein. Groups of mice (n=8-10 per group) received either vehicle plus saline, vehicle plus MPTP, or drug plus MPTP. Seventy two hours after receiving MPTP, mice were sacrificed using cervical dislocation and the striata were excised. The tissue was homogenized in 0.4 N perchloric acid, centrifuged, and the supernatant analyzed by high performance liquid chromatography/electro-chemical detection (HPLC/ED) for dopamine levels. Supernatants were stored in a -90° C. freezer between the time of collection and analysis. The drugs were combined with methyl cellulose and were homogenized in water for dosing. The dosage amount ranged from 10 to 50 mg/kg for CPI1160, CPI1189 and CPI1234, and from 50 to 100 mg/kg for CPI1020.

striatal dopamine [2] = assay: Long term protective effect test in the MPTP model (sacrifice 3 or 14 days after dosing); type: in vivo, C57BL/6J mice
Description: C57BL/6J mice were pretreated with either vehicle (1% methyl cellulose) or a drug (p.o.) 30 min before MPTP. MPTP was dissolved in isotonic saline (0.9%) and given subcutaneously as a single dose of 15 mg free base/kg body weight to produce a reduction in striatal dopamine to about 0.5 nanomoles/mg protein. Groups of mice (n=8-10 per group) received either vehicle plus saline, vehicle plus MPTP, or drug plus MPTP. Seventy two hours after receiving MPTP, mice were sacrificed using cervical dislocation and the striata were excised. The tissue was homogenized in 0.4 N perchloric acid, centrifuged, and the supernatant analyzed by high performance liquid chromatography/electro-chemical detection (HPLC/ED) for dopamine levels. Supernatants were stored in a -90° C. freezer between the time of collection and analysis.
Additional studies were carried out to determine the long-term effect on dopamine depletion of the compounds of the invention. Using the general test method described above, C57BL/6J mice were pretreated with either vehicle or test compound and MPTP and then sacrificed either 3 or 14 days after dosing.

striatal dopamine [3] = assay: 6-Hydroxydopamine dopamine depletion model; type: in vivo, male Sprague Dawley rats; details: for Test side as percent of control side: right striatum injected with 6-hydroxydopamine
Description: Another assay for agents effective in treating dopamine-associated neurodegenerative disorders has been developed. In this assay, the striatum of test animals is injected with the neurotoxicant, 6-hydroxydopamine. 6-Hydroxydopamine has a dopamine-depleting action and is widely accepted as a model for these conditions. Test compounds are administered to determine if they are capable of preventing or reducing the loss of dopamine in the test animals. Again, to the extent that dopamine levels are retained, a compound can be considered an effective agent.
Tests were conducted to assess the ability of CPI-1189 to protect against 6-hydroxydopamine-induced damage. This is a widely accepted model for Parkinson's disease in which 6-hydroxydopamine is believed to produce its toxic effects by inducing oxidative stress. 6-hydroxydopamine has been used extensively since the 1960's as a neurotoxicant. Because 6-hydroxydopamine primarily affects catecholaminergic neurons, it has been mainly used for the experimental study of Parkinson's disease. The compound has had widespread use as a means of administering unilateral lesions in the nigrastriatal system. Animals treated with this toxin show biochemical and behavioral alterations that can be measured and probed pharmacologically to assess both the severity of the lesion and to determine the effect of potential therapeutic interventions.
The protective dose response of CPI-1189 to 6-hydroxydopamine-induced damage to the nigrastriatal system was determined. Damage to the nigrastriatal system was measured in terms of striatal dopamine levels.
Acclimated male Sprague Dawley rats, 55 to 120 days of age were used.
6-hydroxy-dopamine (Research Biochemicals Incorporated) was prepared in a 0.9% NaCl solution containing 0.1 mg/ml ascorbic acid on the morning of the experiment. […]
Immediately following sacrifice, dissected striatal tissue was collected and analyzed by HPLC/EC […] with the results shown in Table 5.

Aβ(1-40) = molecular target: T1, Aβ(1-40) (Homo sapiens, UniProt P05067); assay: Aβ(1-40) β-pleated sheet formation, Thioflavin T fluorescence; type: biochemical; details: Aβ(1-40) 3 μg, PBS pH 6.0, 4 hours, read-out: % Protection (β-pleated sheet formation)
T1 construct: aggregated fibrils of synthetic Aβ(1-40)
Source text: Effect of Benzamides on Aβ(1-40) β-Pleated Sheets Formation: Detection of Amyloid Aggregation in Solution by Thioflavin T Fluorescence Spectra
Several assays have been developed to assess the activity of compounds as agents for the treatment of Alzheimer's disease.
Thioflavin T (ThT) rapidly associates with β pleated sheets particularly the aggregated fibrils of synthetic Aβ(1-40), giving rise to a new excitation maximum at 440 nm and enhanced emission at 490 nm. According to this principle, agents which could delay or reverse the formation of such association might be of therapeutic benefit.
Experiments were performed in 96 well plates and the fluorescence changes were evaluated using Fluorescence plate reader-CytoFluor II. Briefly, into each well was aliquoted 95 μl of ThT (3 μM) prepared in PBS (pH 6.0), 2 μl of NRT (10 μM) prepared in 0.05% of methylcellulose in PBS (pH 6.0), and 3 μl of Aβ(1-40)(3 μg) prepared with dH2 O. The fluorescence measurement began when Aβ(1-40) was added and continued for 4 hours at which the aggregation reached a plateau. The % protection of β-pleated sheet formation was calculated from the relative fluorescence unit difference between aggregation in the presence and in the absence of test compounds.

[4] = In vivo biotransformation of CPI1020 (metabolite in blood after oral administration); details: rats and mice, CPI1020 administered orally
Source text: Commonly owned U.S. Pat. No. 5,472,983, referred to above, discloses several benzamides useful in treating neurodegenerative diseases based on their protective action in the MPTP mouse model of Parkinson's disease. […] This compound is likely formed in the body by reduction of the ring nitro of CPI1020 to an amino moiety (CPI1160) followed by acetylation of the amino function.

T1 sequence (P05067 672-711 limits assumed): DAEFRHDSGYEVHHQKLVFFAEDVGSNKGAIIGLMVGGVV

CC(=O)Nc1cccc(C(=O)NC(C)(C)C)c1 [CPI1234, N-tert-butyl-3-acetamidobenzamide]
% non-MPTP control (striatal dopamine) (striatal dopamine [1]): 76.7% | Dopamine/mg protein ± S.E.M. (striatal dopamine [1]): 1.02 ± .05 /MG PROTEIN | prevention of dopamine depletion following MPTP challenge (in words) (striatal dopamine [1]): effective in preventing dopamine depletion | Degree of protection, % (MPTP dopamine depletion test) (striatal dopamine [1]): 77%

CC(=O)Nc1ccc(C(=O)NC(C)(C)C)cc1 [CPI1189, N-tert-butyl-4-acetamidobenzamide]
% non-MPTP control (striatal dopamine) (striatal dopamine [1]): 89.7% | Dopamine/mg protein ± S.E.M. (striatal dopamine [1]): 1.37 ± .14 /MG PROTEIN | protection from MPTP neurotoxicity, % of control (striatal dopamine [1]): 105 % of control | protection from the neurotoxic action of MPTP (in words) (striatal dopamine [1]): complete protection | Dopamine, nM/mg ± S.E.M., test compound (striatal dopamine [1]): 1.57 ± .11 nM/mg | Protection, % (striatal dopamine [1]): 105% | prevention of dopamine depletion following MPTP challenge (in words) (striatal dopamine [1]): effective in preventing dopamine depletion | potency relative to CPI1020 in protecting mice from dopamine reduction in the striatum (striatal dopamine [1]; s.c. MPTP): approximately 10 times | Striatal dopamine, percent of methyl cellulose/saline control (striatal dopamine [2]; 3 Day Sac): 100% | Striatal dopamine, percent of methyl cellulose/saline control (striatal dopamine [2]; 14 Day Sac): 96.7% | protection against MPTP induced dopamine depletion (in words) (striatal dopamine [2]; sacrificed three days and fourteen days post MPTP): able to protect against MPTP induced dopamine depletion | Test side as percent of control side (striatal dopamine [3]; 50 mg/kg oral): 72.82 ± 8.32% | Test side as percent of control side (striatal dopamine [3]; 100 mg/kg oral): 77.61 ± 13.5% | protection against 6-hydroxydopamine induced dopamine depletion (in words) (striatal dopamine [3]; rat, in vivo): able to protect against 6-hydroxydopamine induced dopamine depletion | inhibition at 10 µM (Aβ(1-40)): 48.3 ± 10.1% | in vivo biotransformation product of CPI1020 found in blood (in words) [4]: found in the blood of rats and mice

CC(=O)Nc1ccc(C(=O)NC(C)C)cc1 [CPI1232, N-iso-propyl-4-acetamidobenzamide]
Degree of protection, % (MPTP dopamine depletion test) (striatal dopamine [1]): 70%

N-methylcyclopropyl-4-acetamidobenzamide [CPI1241]
Degree of protection, % (MPTP dopamine depletion test) (striatal dopamine [1]): 40%

CC(C)(C)NC(=O)c1ccc([N+](=O)[O-])cc1 [CPI1020, N-tert-butyl-4-nitrobenzamide, reference compound]
protection from MPTP neurotoxicity, % of control (striatal dopamine [1]): 56 % of control | protection from the neurotoxic action of MPTP (in words) (striatal dopamine [1]): not as effective | Dopamine, nM/mg ± S.E.M., test compound (striatal dopamine [1]): 0.58 ± .14 nM/mg | Protection, % (striatal dopamine [1]): 56%

CCC(C)(C)NC(=O)c1ccc(NC(C)=O)cc1 [CPI1233, N-tert-amyl-4-acetamidobenzamide]
Degree of protection, % (MPTP dopamine depletion test) (striatal dopamine [1]): 40%

CCC(C)(C)NC(=O)c1ccc([N+](=O)[O-])cc1 [CPI1033, N-tert-amyl-4-nitrobenzamide]
inhibition at 10 µM (Aβ(1-40)): 31.7 ± 3.5%

CC(C)(C)NC(=O)c1ccc(N)cc1 [CPI1160, N-tert-butyl4-aminobenzamide]
% non-MPTP control (striatal dopamine) (striatal dopamine [1]): 93.9% | Dopamine/mg protein ± S.E.M. (striatal dopamine [1]): 1.25 ± .05 /MG PROTEIN | prevention of dopamine depletion following MPTP challenge (in words) (striatal dopamine [1]): effective in preventing dopamine depletion | Degree of protection, % (MPTP dopamine depletion test) (striatal dopamine [1]): 94%

CC(C)NC(=O)c1ccc([N+](=O)[O-])cc1 [CPI1026, N-iso-propyl-4-nitrobenzamide]
inhibition at 10 µM (Aβ(1-40)): 14.4 ± 14.4%
